Assay results from ChEMBL document CHEMBL1155324, “Synthesis and evaluation of a series of 2,4-diaminopyridine derivatives as potential positron emission tomography tracers for neuropeptide Y Y1 receptors” (Bioorg Med Chem Lett, 2009).

Experiments:
[1] = Octanol-water distribution coefficient log Dat pH 7.4 by water-plug aspiration/injection method combined with HPLC-mass spectrometry
[2] = molecular target: T1, Neuropeptide Y receptor type 1 (Homo sapiens, UniProt P25929); assay: Displacement of [125I]-PYY from human NPYY1 receptor overexpressed in CHO cell membrane after 120 mins by scintillation counting; format: cell membranes
T1 sequence (P25929 whole entry): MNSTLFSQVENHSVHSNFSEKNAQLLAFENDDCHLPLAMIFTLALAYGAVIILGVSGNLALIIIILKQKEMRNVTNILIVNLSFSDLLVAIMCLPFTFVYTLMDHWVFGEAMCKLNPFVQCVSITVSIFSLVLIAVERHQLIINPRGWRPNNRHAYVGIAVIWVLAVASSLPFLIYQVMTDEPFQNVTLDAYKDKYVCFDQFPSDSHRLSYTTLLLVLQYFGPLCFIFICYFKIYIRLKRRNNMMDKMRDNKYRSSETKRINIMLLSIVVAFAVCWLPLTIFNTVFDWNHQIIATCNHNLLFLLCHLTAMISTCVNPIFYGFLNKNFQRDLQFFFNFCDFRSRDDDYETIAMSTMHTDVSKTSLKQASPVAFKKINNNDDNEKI

[3] = molecular target: T2, Neuropeptide Y receptor type 2 (Homo sapiens, UniProt P49146); assay: Displacement of [125I]-PYY from human NPYY2 receptor
T2 sequence (P49146 whole entry): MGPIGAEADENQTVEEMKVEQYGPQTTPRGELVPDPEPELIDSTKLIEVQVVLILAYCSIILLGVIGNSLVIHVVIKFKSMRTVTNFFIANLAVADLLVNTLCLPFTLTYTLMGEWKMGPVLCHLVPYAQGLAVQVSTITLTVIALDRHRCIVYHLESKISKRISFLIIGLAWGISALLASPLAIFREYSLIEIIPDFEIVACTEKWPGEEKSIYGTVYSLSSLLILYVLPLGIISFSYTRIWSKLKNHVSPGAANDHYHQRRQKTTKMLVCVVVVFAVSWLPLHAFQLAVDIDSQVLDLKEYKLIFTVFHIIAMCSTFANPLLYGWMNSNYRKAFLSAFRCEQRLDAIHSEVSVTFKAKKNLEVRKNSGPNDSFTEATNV

[4] = molecular target: Neuropeptide Y receptor type 4 (Homo sapiens, UniProt P50391); assay: Displacement of [125I]-PYY from human NPYY4 receptor
[5] = molecular target: T3, Neuropeptide Y receptor type 5 (Homo sapiens, UniProt Q15761); assay: Displacement of [125I]-PYY from human NPYY5 receptor
T3 sequence (Q15761 whole entry): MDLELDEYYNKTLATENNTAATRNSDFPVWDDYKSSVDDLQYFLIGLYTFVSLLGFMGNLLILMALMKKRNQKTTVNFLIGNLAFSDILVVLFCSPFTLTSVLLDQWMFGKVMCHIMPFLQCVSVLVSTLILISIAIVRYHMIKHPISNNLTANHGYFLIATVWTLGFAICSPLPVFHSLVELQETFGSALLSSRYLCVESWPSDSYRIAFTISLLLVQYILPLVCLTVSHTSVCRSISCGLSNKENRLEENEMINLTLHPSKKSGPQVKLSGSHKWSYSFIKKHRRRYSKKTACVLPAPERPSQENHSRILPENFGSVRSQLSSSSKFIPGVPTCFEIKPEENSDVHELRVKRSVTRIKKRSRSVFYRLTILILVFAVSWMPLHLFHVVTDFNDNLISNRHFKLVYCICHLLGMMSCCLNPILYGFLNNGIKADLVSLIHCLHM

[6] = Ratio of permeability from basal to apical side to apical to basal side of human KB-3-1 cells by scintillation counting; format: ADME, cell-based

Chain of Neuropeptide Y receptor type 4 (P50391 whole entry): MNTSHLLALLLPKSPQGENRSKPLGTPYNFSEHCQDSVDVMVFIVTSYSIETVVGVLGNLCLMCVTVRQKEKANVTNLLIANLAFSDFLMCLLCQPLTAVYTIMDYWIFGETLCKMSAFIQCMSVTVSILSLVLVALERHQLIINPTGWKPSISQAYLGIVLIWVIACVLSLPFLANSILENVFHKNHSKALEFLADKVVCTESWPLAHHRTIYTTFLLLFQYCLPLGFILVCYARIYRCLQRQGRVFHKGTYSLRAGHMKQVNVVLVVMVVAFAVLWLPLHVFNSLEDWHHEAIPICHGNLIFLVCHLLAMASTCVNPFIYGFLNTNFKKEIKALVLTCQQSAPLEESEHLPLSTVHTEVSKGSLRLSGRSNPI

| logD [1] | IC50 [2] [nM] | IC50 [3] [nM] | IC50 [4] [nM] | IC50 [5] [nM] | efflux ratio [6] | SMILES |
| --- | --- | --- | --- | --- | --- | --- |
| 3.5 |  |  |  |  |  | Cc1nc(SCc2cc(N3CCSCC3)cc(NCc3cccc(F)n3)n2)oc1C |
| 3.5 | 0.46 |  |  |  |  | Cc1cccc(CNc2cc(N3CCOCC3)cc(CSc3nc4c(o3)CCCC4)n2)n1 |
| 2.9 | 0.27 |  |  |  |  | Cc1cccc(CNc2cc(N3CCOCC3)cc(CSc3nc(C)c(C)s3)n2)n1 |
| 2.3 | 0.56 |  |  |  |  | Cc1cccc(CNc2cc(N3CCOCC3)cc(CSc3nc(C)c(CF)s3)n2)n1 |
| 2.3 | 8 |  |  |  |  | Cc1nc(SCc2cc(N3CCS(=O)(=O)CC3)cc(NCc3cccc(F)n3)n2)oc1C |
| 2.8 | 4.3 |  |  |  |  | COCc1cccc(CNc2cc(N3CCOCC3)cc(CSc3nc(C)c(C)o3)n2)n1 |
| 2.6 | 10 |  |  |  |  | Cc1nc(SCc2cc(N3CCOCC3)cc(NCc3cccc(COCCF)n3)n2)oc1C |
| 2.2 | 1.7 |  |  |  |  | Cc1cccc(CNc2cc(N3CCS(=O)(=O)CC3)cc(CSc3nc(C)c(C)o3)n2)n1 |
| 3.1 | 0.39 |  |  |  |  | CCc1oc(SCc2cc(N3CCOCC3)cc(NCc3cccc(C)n3)n2)nc1C |
|  |  | > 10000 | > 10000 | > 10000 |  | CCc1sc(SCc2cc(N3CCOCC3)cc(NCc3cccc(C)n3)n2)nc1CF |
| 3 | 7.7 |  |  |  |  | Cc1nc(SCc2cc(N3CCOCC3)cc(NCc3cccnc3F)n2)oc1C |
| 2.8 | 0.69 |  |  |  |  | Cc1cccc(CNc2cc(N3CCOCC3)cc(CSc3nc(C)c(C)o3)n2)n1 |
| 3.1 | 1.5 |  |  |  |  | Cc1nc(SCc2cc(N3CCOCC3)cc(NCc3cccc(F)n3)n2)oc1C |
| 3 | 1.8 |  |  |  |  | Cc1nc(SCc2cc(N3CCOCC3)cc(NCc3cccc(CF)n3)n2)oc1C |
| 3.9 | 19 |  |  |  |  | Cc1nc(SCc2cc(N3CCOCC3)cc(NCc3cccc(OCCF)n3)n2)oc1C |
| 3.1 | 5.2 |  |  |  |  | Cc1nc(SCc2cc(N3CCOCC3)cc(NCc3ccnc(F)c3)n2)oc1C |
| 3.6 | 0.16 |  |  |  |  | Cc1cccc(CNc2cc(N3CCSCC3)cc(CSc3nc(C)c(C)o3)n2)n1 |
| 2.7 |  | > 10000 | > 10000 | > 10000 | 1.8 | Cc1cccc(CNc2cc(N3CCOCC3)cc(CSc3nc(CF)c(C)s3)n2)n1 |

| SMILES | logD [1] | IC50 [2] [nM] | IC50 [3] [nM] | IC50 [4] [nM] | IC50 [5] [nM] | efflux ratio [6] |
| --- | --- | --- | --- | --- | --- | --- |
| Cc1nc(SCc2cc(N3CCOCC3)cc(NCc3ccc(F)nc3)n2)oc1C | 3 | 21 |  |  |  |  |
